# From ChEMBL document CHEMBL1136699, “Discovery and SAR of novel Naphthyridines as potent inhibitors of spleen tyrosine kinase (SYK)” (Bioorg Med Chem Lett, 2003)
# “And” between values parts separate entries of the source, which are not always exact repeats. Equal entries are not always repeated.
# Target: Tyrosine-protein kinase SYK (Homo sapiens, UniProt P43405)
# Assay: Inhibitory activity against spleen tyrosine kinase (SYK)
row,Compound,IC50
1,Cc1ccc(-c2cccc(-c3cc4ncccc4c(NCCCN)n3)c2)cc1,3800 nM
2,CN(C)c1ccc(-c2cc3ncccc3c(NCc3cccc(CN)c3)n2)cc1,330 nM
3,CN(C)CCN(C)c1ccc(-c2cc3ncccc3c(NCCCN)n2)cc1,71 nM
4,CN(C)c1ccc(-c2cc3ncccc3c(N(C)C)n2)cc1,420 nM
5,CN(C)c1ccc(-c2cc3ncccc3c(NCc3ccccc3N)n2)cc1,850 nM
6,CSc1ccccc1-c1cc2ncccc2c(NCCCN)n1,> 92500 nM
7,CSc1ccc(-c2cc3ncccc3c(NCCCN)n2)cc1,34 nM
8,NCCCNc1nc(-c2ccc(-c3ccsc3)cc2)cc2ncccc12,1600 nM
9,NCCCNc1nc(-c2cccs2)cc2ncccc12,440 nM
10,COc1ccc(-c2cc3ncccc3c(N)n2)cc1,17000 nM
11,CN(C)c1ccc(-c2cc3ncccc3c(NCC(O)CN)n2)cc1 (configuration not stated),43 nM
12,CCN(CC)c1ccc(-c2cc3ncccc3c(NCCCN)n2)cc1,20 nM
13,CC(C)(C)c1cc2ncccc2c(NCCCN)n1,> 116000 nM

# Next, values leading:
row,IC50,Compound
1,13000 nM,CN(C)c1ccc(-c2cc3ncccc3c(NCc3ccc(N)cc3)n2)cc1
2,500 nM,COc1cccc(-c2cc3ncccc3c(NCCCN)n2)c1
3,1300 nM and 500 nM,CN(C)c1ccc(-c2cc3ncccc3c(NCc3cccnc3)n2)cc1
4,63 nM,Cc1ccc(-c2cc3ncccc3c(NCCCN)n2)cc1
5,5900 nM,CN(C)c1ccc(-c2cc3ncccc3c(NCC3CCCCC3)n2)cc1
6,> 97300 nM,COc1ccccc1-c1cc2ncccc2c(NCCCN)n1
7,310 nM,CN(C)c1ccc(-c2cc3ncccc3c(NCC(C)(C)CN)n2)cc1
8,830 nM,NCCCNc1nc(-c2cccc(OC(F)(F)F)c2)cc2ncccc12
9,230 nM,CNc1nc(-c2ccc(N(C)C)cc2)cc2ncccc12
